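Values below derive from 48-hour exposures of cells grown in 96-well plates, with endpoints linearly interpolated between the two concentrations bracketing the appropriate inhibition level. TGI marks complete inhibition of growth.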
Columns and labels:
Experiment in all cases: DTP human tumour cell line panel, 48 h
CAKI-1 renal = test system: CAKI-1 renal
NCI-H522 lung = test system: NCI-H522 lung
RPMI-8226 leukemia = test system: RPMI-8226 leukemia
KM12 colon = test system: KM12 colon
MCF7 breast = test system: MCF7 breast
OVCAR-3 ovarian = test system: OVCAR-3 ovarian
NCI/ADR-RES ovarian = test system: NCI/ADR-RES ovarian
SK-MEL-5 melanoma = test system: SK-MEL-5 melanoma
HCT-116 colon = test system: HCT-116 colon
SF-295 CNS = test system: SF-295 CNS
TK-10 renal = test system: TK-10 renal
MDA-MB-231 breast = test system: MDA-MB-231 breast
U251 CNS = test system: U251 CNS
UACC-62 melanoma = test system: UACC-62 melanoma
IGROV1 ovarian = test system: IGROV1 ovarian
T-47D breast = test system: T-47D breast
ACHN renal = test system: ACHN renal
SR leukemia = test system: SR leukemia
PC-3 prostate = test system: PC-3 prostate
SK-MEL-2 melanoma = test system: SK-MEL-2 melanoma
A549 NSCLC = test system: A549 NSCLC
CCRF-CEM leukemia = test system: CCRF-CEM leukemia
SK-OV-3 ovarian = test system: SK-OV-3 ovarian
EKVX NSCLC = test system: EKVX NSCLC
MDA-MB-435 = test system: MDA-MB-435
HCT-15 colon = test system: HCT-15 colon
UACC-257 melanoma = test system: UACC-257 melanoma
OVCAR-5 ovarian = test system: OVCAR-5 ovarian
MALME-3M melanoma = test system: MALME-3M melanoma
NCI-H23 lung = test system: NCI-H23 lung
OVCAR-8 ovarian = test system: OVCAR-8 ovarian
SF-539 CNS = test system: SF-539 CNS
LOX IMVI melanoma = test system: LOX IMVI melanoma
OVCAR-4 ovarian = test system: OVCAR-4 ovarian
SNB-75 CNS = test system: SNB-75 CNS
A498 renal = test system: A498 renal
HT29 colon = test system: HT29 colon
K-562 leukemia = test system: K-562 leukemia
COLO 205 colon = test system: COLO 205 colon
SNB-19 CNS = test system: SNB-19 CNS
SF-268 CNS = test system: SF-268 CNS
HOP-92 NSCLC = test system: HOP-92 NSCLC
DU-145 prostate = test system: DU-145 prostate
BT-549 breast = test system: BT-549 breast
MOLT-4 leukemia = test system: MOLT-4 leukemia
HL-60(TB) leukemia = test system: HL-60(TB) leukemia
HOP-62 NSCLC = test system: HOP-62 NSCLC
RXF 393 renal = test system: RXF 393 renal
M14 melanoma = test system: M14 melanoma
SN12C renal = test system: SN12C renal
MDA-N = test system: MDA-N
786-0 renal = test system: 786-0 renal
SW-620 colon = test system: SW-620 colon
UO-31 renal = test system: UO-31 renal
NCI-H226 lung = test system: NCI-H226 lung
SK-MEL-28 melanoma = test system: SK-MEL-28 melanoma
HS 578T breast = test system: HS 578T breast
HCC-2998 colon = test system: HCC-2998 colon
NCI-H460 lung = test system: NCI-H460 lung

C[C@]12CC[C@H](O)CC1=CC[C@@H]1[C@@H]2CC[C@]2(C)C(=N/N)/C(=N\O)C[C@@H]12
TGI (CAKI-1 renal): > 100 µM | TGI (NCI-H522 lung): > 100 µM | TGI (RPMI-8226 leukemia): > 100 µM | TGI (KM12 colon): > 100 µM | TGI (MCF7 breast): > 100 µM | TGI (OVCAR-3 ovarian): > 100 µM | TGI (NCI/ADR-RES ovarian): > 100 µM | TGI (SK-MEL-5 melanoma): > 100 µM | TGI (HCT-116 colon): > 100 µM | TGI (SF-295 CNS): > 100 µM | TGI (TK-10 renal): > 100 µM | TGI (MDA-MB-231 breast): > 100 µM | TGI (U251 CNS): 43.4 µM | TGI (UACC-62 melanoma): > 100 µM | TGI (IGROV1 ovarian): 75.7 µM | TGI (T-47D breast): > 100 µM | TGI (ACHN renal): > 100 µM | TGI (SR leukemia): > 100 µM | TGI (PC-3 prostate): > 100 µM | TGI (SK-MEL-2 melanoma): > 100 µM | TGI (A549 NSCLC): > 100 µM | TGI (CCRF-CEM leukemia): > 100 µM | TGI (SK-OV-3 ovarian): > 100 µM | TGI (EKVX NSCLC): > 100 µM | TGI (MDA-MB-435): 5 µM | TGI (HCT-15 colon): > 100 µM | TGI (UACC-257 melanoma): > 100 µM | TGI (OVCAR-5 ovarian): > 100 µM | TGI (MALME-3M melanoma): > 100 µM | TGI (NCI-H23 lung): > 100 µM | TGI (OVCAR-8 ovarian): > 100 µM | TGI (SF-539 CNS): > 100 µM | TGI (LOX IMVI melanoma): > 100 µM | TGI (OVCAR-4 ovarian): > 100 µM | TGI (SNB-75 CNS): 30.5 µM | TGI (A498 renal): 30.8 µM | TGI (HT29 colon): > 100 µM | TGI (K-562 leukemia): > 100 µM | TGI (COLO 205 colon): > 100 µM | TGI (SNB-19 CNS): > 100 µM | TGI (SF-268 CNS): > 100 µM | TGI (HOP-92 NSCLC): 11.8 µM | TGI (DU-145 prostate): > 100 µM | TGI (BT-549 breast): > 100 µM | TGI (MOLT-4 leukemia): > 100 µM | TGI (HL-60(TB) leukemia): 67.7 µM | TGI (HOP-62 NSCLC): > 100 µM | TGI (RXF 393 renal): > 100 µM | TGI (M14 melanoma): > 100 µM | TGI (SN12C renal): > 100 µM | TGI (MDA-N): 48.2 µM | TGI (786-0 renal): > 100 µM | TGI (SW-620 colon): > 100 µM | TGI (UO-31 renal): > 100 µM | TGI (NCI-H226 lung): > 100 µM

N[C@@H](CCC(=O)NCP(=O)(O)O)C(=O)O
TGI (NCI-H522 lung): > 100 µM | TGI (RPMI-8226 leukemia): > 100 µM | TGI (KM12 colon): > 100 µM | TGI (MCF7 breast): > 100 µM | TGI (OVCAR-3 ovarian): > 100 µM | TGI (NCI/ADR-RES ovarian): > 100 µM | TGI (SK-MEL-5 melanoma): > 100 µM | TGI (HCT-116 colon): > 100 µM | TGI (SF-295 CNS): > 100 µM | TGI (TK-10 renal): > 100 µM | TGI (MDA-MB-231 breast): > 100 µM | TGI (U251 CNS): > 100 µM | TGI (UACC-62 melanoma): > 100 µM | TGI (IGROV1 ovarian): > 100 µM | TGI (T-47D breast): > 100 µM | TGI (ACHN renal): > 100 µM | TGI (SR leukemia): > 100 µM | TGI (PC-3 prostate): > 100 µM | TGI (SK-MEL-2 melanoma): > 100 µM | TGI (A549 NSCLC): > 100 µM | TGI (SK-MEL-28 melanoma): > 100 µM | TGI (EKVX NSCLC): > 100 µM | TGI (MDA-MB-435): > 100 µM | TGI (HCT-15 colon): > 100 µM | TGI (UACC-257 melanoma): > 100 µM | TGI (OVCAR-5 ovarian): > 100 µM | TGI (HS 578T breast): > 100 µM | TGI (MALME-3M melanoma): > 100 µM | TGI (NCI-H23 lung): > 100 µM | TGI (OVCAR-8 ovarian): > 100 µM | TGI (SF-539 CNS): > 100 µM | TGI (HCC-2998 colon): > 100 µM | TGI (A498 renal): > 100 µM | TGI (HT29 colon): > 100 µM | TGI (K-562 leukemia): > 100 µM | TGI (COLO 205 colon): > 100 µM | TGI (SNB-19 CNS): > 100 µM | TGI (BT-549 breast): > 100 µM | TGI (MOLT-4 leukemia): > 100 µM | TGI (HL-60(TB) leukemia): > 100 µM | TGI (HOP-62 NSCLC): > 100 µM | TGI (SN12C renal): > 100 µM | TGI (MDA-N): > 100 µM | TGI (786-0 renal): > 100 µM | TGI (NCI-H460 lung): > 100 µM | TGI (SW-620 colon): > 100 µM | TGI (UO-31 renal): > 100 µM
